Results: PMC6515293 (Molecules, 2019)
Entries after “also recorded” stand apart in the source; their conditions may differ.

Assays:
estrogen receptor = tested on: estrogen receptor; parameters: method as in PMID 26272952; conditions: computational network model; cited from earlier work
[1] = tested on: estrogen responsive elements (ERE-luc or AP-1-luc); parameters: method as in PMID 20209442; conditions: 10 μM of MEHP; cited from earlier work
human ERα = tested on: human ERα; parameters: method as in PMID 15840436; conditions: 10.0 μM of MEHP in the presence of 10.0 pM E2; cited from earlier work
budding yeast = tested on: budding yeast; parameters: method as in PMID 29783050; conditions: cited from earlier work
male rats = tested on: male rats; parameters: method as in PMID 17654256; conditions: cited from earlier work
fetal testis = conditions: cited from earlier work
[2] = tested on: YES and YAS Saccharomyces cerevisiae yeasts; assay: Yeast cytotoxicity (growth factor, absorbance at 690 nm)
MCF-7 cells = tested on: MCF-7 cells; parameters: method as in PMID 12913283; conditions: cited from earlier work

## CCCCC(CC)COC(=O)c1ccccc1C(=O)O (stereo not drawn) [MEHP, mono-(2-ethylhexyl) phthalate]
Estrogen receptor
  anti-estrogenic activity: no anti-estrogenic activity
[1]
  estrogenic activity: estrogenic effect
Human ERα
  anti-estrogenic activity: no anti-estrogenic activity
Budding yeast
  concentration at which cytotoxicity was induced: 1600 µM
Male rats
  weights of ventral prostate, seminal vesicles and levator ani/bulbocavernosus (LABC): decreased weights
Fetal testis
  testosterone production: did not affect
[2]; 100 nM to 1.00 mM
  cytotoxicity (yeast cell viability): did not induce yeast toxicity; also recorded: no effect
[2]; 10.0 mM, growth factor below 0.5
  cytotoxicity (yeast cell viability): significant cytotoxicity
MCF-7 cells
  anti-estrogenic activity: decrease of natural estrogenic activity
